The NIST ThermoML archive (doi:10.1021/acs.jced.7b00713)
Numbers after ± are expanded uncertainties.

Assay: molar heat capacity at constant pressure
Details: Liquid, Flow calorimetry

F/C=C/C(F)(F)F [trans-1,3,3,3-tetrafluoropropene]
Details	molar heat capacity at constant pressure [J/K/mol]
313.46 K, 3000 kPa	160.8 ± 4.8
313.47 K, 3980 kPa	158.97 ± 4.8
313.47 K, 4490 kPa	157.95 ± 4.8
313.48 K, 3490 kPa	159.89 ± 4.8
313.48 K, 5010 kPa	157.04 ± 4.7
313.49 K, 1040 kPa	165.36 ± 5
313.49 K, 5490 kPa	156.58 ± 4.7
313.49 K, 6010 kPa	155.67 ± 4.7
313.49 K, 6990 kPa	153.61 ± 4.6
313.49 K, 7470 kPa	152.93 ± 4.6
313.5 K, 1510 kPa	164.22 ± 4.9
313.5 K, 7990 kPa	152.36 ± 4.6
313.51 K, 2010 kPa	163.08 ± 4.9
313.51 K, 6510 kPa	154.53 ± 4.7
313.51 K, 8500 kPa	151.79 ± 4.6
313.52 K, 2480 kPa	162.4 ± 4.9
313.52 K, 8990 kPa	150.99 ± 4.6
313.52 K, 9510 kPa	150.65 ± 4.6
313.53 K, 10000 kPa	149.96 ± 4.6
323.28 K, 3520 kPa	163.76 ± 4.9
323.28 K, 4030 kPa	162.4 ± 4.9
323.29 K, 4530 kPa	161.25 ± 4.8
323.29 K, 4990 kPa	160.46 ± 4.8
323.29 K, 7490 kPa	155.89 ± 4.7
323.29 K, 8010 kPa	154.75 ± 4.7
323.29 K, 8520 kPa	154.18 ± 4.7
323.29 K, 9040 kPa	153.04 ± 4.6
323.31 K, 5490 kPa	159.66 ± 4.8
323.31 K, 7030 kPa	156.92 ± 4.7
323.32 K, 3010 kPa	164.68 ± 4.9
323.32 K, 6010 kPa	158.63 ± 4.8
323.33 K, 1510 kPa	168.9 ± 5.1
323.33 K, 2010 kPa	167.41 ± 5
323.33 K, 2500 kPa	165.93 ± 5
323.33 K, 6480 kPa	157.83 ± 4.8
323.34 K, 9490 kPa	152.7 ± 4.6
323.36 K, 10010 kPa	151.79 ± 4.6
333.08 K, 1550 kPa	178.13 ± 5.4
333.08 K, 2060 kPa	175.62 ± 5.2
333.11 K, 2510 kPa	173.69 ± 5.2
333.11 K, 3500 kPa	170.26 ± 5.1
333.13 K, 3030 kPa	172.09 ± 5.1
333.13 K, 7490 kPa	160.8 ± 4.8
333.14 K, 8040 kPa	159.32 ± 4.8
333.15 K, 4000 kPa	169.01 ± 5.1
333.15 K, 6520 kPa	162.4 ± 4.9
333.15 K, 7020 kPa	161.37 ± 4.9
333.16 K, 6010 kPa	163.54 ± 4.9
333.16 K, 8500 kPa	158.75 ± 4.8
333.18 K, 4980 kPa	166.27 ± 5
333.18 K, 5500 kPa	164.56 ± 4.9
333.19 K, 4500 kPa	167.76 ± 5
333.19 K, 9020 kPa	158.06 ± 4.8
333.2 K, 10080 kPa	155.89 ± 4.7
333.21 K, 9510 kPa	157.38 ± 4.7
343.53 K, 2040 kPa	185.77 ± 5.6
343.57 K, 2550 kPa	183.04 ± 5.5
343.57 K, 3000 kPa	180.3 ± 5.5
343.59 K, 3540 kPa	178.36 ± 5.4
343.6 K, 4040 kPa	175.74 ± 5.2
343.61 K, 4540 kPa	173.23 ± 5.2
343.62 K, 5040 kPa	171.75 ± 5.1
343.62 K, 5510 kPa	169.69 ± 5.1
343.62 K, 10070 kPa	157.61 ± 4.8
343.63 K, 9080 kPa	160 ± 4.8
343.63 K, 9530 kPa	159.09 ± 4.8
343.64 K, 6050 kPa	168.44 ± 5
343.64 K, 6590 kPa	166.61 ± 5
343.64 K, 7070 kPa	165.25 ± 5
343.64 K, 7510 kPa	163.88 ± 4.9
343.64 K, 8090 kPa	162.17 ± 4.9
343.65 K, 8480 kPa	160.91 ± 4.8
353.55 K, 2550 kPa	196.49 ± 5.9
353.55 K, 3510 kPa	188.4 ± 5.7
353.58 K, 3040 kPa	192.05 ± 5.8
353.61 K, 5010 kPa	178.36 ± 5.4
353.61 K, 5510 kPa	176.54 ± 5.4
353.62 K, 6040 kPa	175.17 ± 5.2
353.64 K, 4520 kPa	181.44 ± 5.5
353.64 K, 6530 kPa	173.69 ± 5.2
353.64 K, 7050 kPa	172.54 ± 5.1
353.65 K, 7500 kPa	171.63 ± 5.1
353.65 K, 7970 kPa	170.72 ± 5.1
353.66 K, 4050 kPa	184.52 ± 5.6
353.67 K, 8480 kPa	170.04 ± 5.1
353.68 K, 9030 kPa	168.67 ± 5
353.68 K, 9510 kPa	168.21 ± 5
353.68 K, 10090 kPa	166.96 ± 5
363.56 K, 3500 kPa	207.67 ± 6.3
363.56 K, 4000 kPa	200.03 ± 6
363.57 K, 3000 kPa	219.53 ± 6.6
363.61 K, 4510 kPa	194.78 ± 5.8
363.61 K, 5520 kPa	186.46 ± 5.6
363.62 K, 4990 kPa	190.34 ± 5.7
363.63 K, 6020 kPa	182.81 ± 5.5
363.64 K, 6520 kPa	180.19 ± 5.4
363.64 K, 6990 kPa	177.33 ± 5.4
363.64 K, 7530 kPa	175.05 ± 5.2
363.64 K, 8010 kPa	173.12 ± 5.2
363.65 K, 8530 kPa	171.4 ± 5.1
363.65 K, 9050 kPa	170.15 ± 5.1
363.66 K, 9450 kPa	169.01 ± 5.1
363.66 K, 9990 kPa	167.76 ± 5
373.35 K, 3540 kPa	259.44 ± 8
373.42 K, 4030 kPa	231.73 ± 7.1
373.42 K, 4510 kPa	216.91 ± 6.6
373.43 K, 5010 kPa	206.42 ± 6.3
373.44 K, 5540 kPa	199.23 ± 6
373.47 K, 6020 kPa	194.1 ± 5.8
373.48 K, 7010 kPa	185.66 ± 5.6
373.49 K, 6530 kPa	189.54 ± 5.7
373.49 K, 7500 kPa	183.04 ± 5.5
373.5 K, 8030 kPa	179.62 ± 5.4
373.51 K, 8510 kPa	177.45 ± 5.4
373.56 K, 9050 kPa	175.4 ± 5.2
373.57 K, 9430 kPa	174.48 ± 5.2
373.59 K, 9990 kPa	172.66 ± 5.1
391.65 K, 4520 kPa	525.5 ± 21
392.2 K, 5020 kPa	310.99 ± 13
392.38 K, 5470 kPa	257.73 ± 8.2
392.46 K, 6010 kPa	226.37 ± 7
392.52 K, 6540 kPa	210.06 ± 6.4
392.57 K, 7060 kPa	200.6 ± 6
392.6 K, 7560 kPa	194.55 ± 5.8
392.63 K, 8030 kPa	191.02 ± 5.7
392.67 K, 8510 kPa	189.88 ± 5.7
392.72 K, 9070 kPa	188.05 ± 5.7
392.75 K, 10000 kPa	187.03 ± 5.6
392.77 K, 9520 kPa	188.51 ± 5.7
392.77 K, 10010 kPa	187.48 ± 5.6
